The source of these data is patent US20190315775A1, “MODIFIED […] AND PHARMACEUTICAL COMPOSITION HAVING SAME AS ACTIVE INGREDIENT” (KEIO UNIVERSITY, priority 2016, published 2019).

Data set [1] is described as follows: Stability in medium (containing FBS). It counts as in vitro ADME. The text has this:
Subsequently, PEG11(E)-TC11 was examined for stability in mouse blood plasma (A) and in medium (B). […] Such degradation is considered to result from a small amount of esterase in FBS (fetal calf serum) contained in the medium.

For data set [2], the system named is KMS34 high-risk MM cell line. The data set can be described thus: WST-1 cell proliferation inhibition (Example 8), KMS34. It counts as cell-based. The note with it: Homo sapiens, KMS-34, WST-1, 48 hours, read-out: IC50, cell proliferation inhibitory activity, KMS34. As to the method:
(§1) Similar to Example 7, high-risk MM cell lines were treated with drugs, TC11 and PEG5(E)-TC11 at arbitrary concentrations. […] Specifically, each high-risk MM cell line was prepared at 5×10^5 cells/ml, and then seeded at 50 μl per well (2.5×10^4 cells). Drugs such as TC11, and PEG5(E)-TC11 were added to wells at arbitrary concentrations. WST-1 reagent was added at 48 hours after addition of drugs. After 1 hour of reaction at 37° C. in a CO2 incubator, absorbance was measured at a wavelength of 450 nm using a microplate reader. Cell viability was found from an absorbance ratio using absorbance at 0 μM designated as 100%. IC50 was calculated from a semi-logarithmic chart using Microsoft (registered trademark) Excel.
A general note: Tetrazolium assays rely on reduction of a dye to a coloured formazan, in cell work by metabolically active cells.

In data set [3] the test system is KMM1 high-risk MM cell line. The data set can be described thus: WST-1 cell proliferation inhibition (Example 8), KMM1. The conditions noted are these: Homo sapiens, KMM-1, WST-1, 48 hours, read-out: IC50, cell proliferation inhibitory activity, KMM1. It counts as cell-based. The procedure: as §1
Data set [4] deals with KMS11 high-risk MM cell line. The data set can be described thus: WST-1 cell proliferation inhibition (Example 8), KMS11. The note with it: Homo sapiens, KMS-11, WST-1, 48 hours, read-out: IC50, cell proliferation inhibitory activity, KMS11. It counts as cell-based. The procedure:
as §1

Data set [5] relates to KMS11 xenograft. In words: Antitumor effect on KMS11 cancer-bearing mice (Example 17). The note with it: Day 9, i.p., equimolar to TC11 60 mg/kgBW. It counts as in vivo, ICR/SCID mice. As to the method:
KMS11 was administered to 5-week-old ICR/SCID mice at 2×10^7 cells/mouse via hypodermic injection. Tumor volumes were measured over time, and the day on which the tumor volume exceeded 50 mm^3 was designated as Day 1 and observation was performed for 9 days. […] On the day of administration, these solutions were diluted 10-fold with physiological saline while stirring with Vortex, and then intraperitoneally administered. Tumor volume was calculated by the following formula.
Tumor volume (mm^3)=major axis×minor axis×minor axis×π/6=major axis×minor axis×minor axis×0.5236

The structures appear in SMILES notation.

For `COCCOCCOCCOCCOCCOCCOCCOCCOCCOCCOCCOCCC(=O)OCCOc1cc2c(cc1N)C(=O)N(c1c(C(C)C)cccc1C(C)C)C2=O` [PEG11(E)-TC11], the Stability in medium entry in data set [1] is reported as “slowly degraded even in medium”.
On to `CC(C)c1cccc(C(C)C)c1N1C(=O)c2ccc(N)cc2C1=O` [TC11, 2-(2,6-di-isopropylphenyl)-5-amino-1H-isoindole-1,3-dione, reference compound], for which the IC50 amounted to 6.5 µM in data set [2], 5.7 µM in data set [3] and 3.2 µM in data set [4]. For the same compound, in data set [5], the “KMS-11 tumor growth compared to control mice” value is reported as “tumor growth was suppressed”.
